A short description of assay [1]: Chewing gum evaluation by trained descriptive analysis panel. To be noted: level 0.20%. The procedure: The following gum base formulation was prepared: […]
Structure III by itself at levels detailed in the Table III was blended with the gum base in a Sigma mixer. The resultant chewing gum blend was then manufactured into strips 1 inch in width and 0.1 inches in thickness. These strips were cut into lengths of 3 inches each.
Samples were profiled by a highly trained descriptive analysis panel. The ballot consisted of the following terms: Total impact, total mint, cooling-mouth closed, cooling—breath in, nasal cooling—breathe in, throat irritation, bitterness, tongue irritation, numbing. Each attribute was rated at discrete time points including 1 minute, 3 minutes, 5 minutes, 10 minutes, 20 minutes, and 30 minutes.

The nature of assay [2]: Evaluation of cooler mixed with fondant. An excerpt: In this example, Structure III was mixed with a fondant, commercially available from Confectionary House, Troy, N.Y., at levels listed in Table 1.
The nature of assay [3]: Flavor evaluation, tasted in water at 10 ppm. From the text: After expectorating, cooling began to build over time. The residual cooling (approx. five minutes) after expectorating earned a rating of 4 while when the cooler was in mouth, it was rated a 1 (on a scale of 1 to 9) when tasted in water at 10 ppm.

The values that follow come from patent publication US20110070329A1, “1-tert-Butylcyclohexanecarboxamide and uses thereof as cooling compounds” (priority 2009, published 2011).

Entries after “also recorded” stand apart in the source; their conditions may differ.

`CC(C)(C)C1(C(=O)NCc2ccccn2)CCCCC1` [Structure III, 1-tert-butyl-N-[(pyridine-2-yl)methyl]cyclohexanecarboxamide]: the “Time and Evaluation (chewing gum)” value in assay [1] (0-1 minute) was “Sweet, citrus. Not cooling slightly bitter”; in assay [1] (1-3 minutes), “Cooling is perceivable, but weak”; in assay [1] (3-5 minutes), “bitterness., cooling very weak; also recorded: More cooling. Cooling when breathing. Little”; in assay [1] (5-10 minutes) it was “Cooling is all over the mouth. Some bitterness; also recorded: is perceivable, very slight cooling again very; also recorded: weak”; in assay [1] (10-20 minutes), “Cooling is all over the mouth but not very; also recorded: intensive., little to no cooling”; in assay [1] (20-30 minutes), “More bitterness is perceivable. Cooling is; also recorded: moderate and slowly starting to decline; also recorded: little to no cooling”. Besides, the “COMMENTS (cooling evaluation in fondant)” value in assay [2] (50 ppm) was “Slight cooling but quick onset, fills mouth”; in assay [2] (100 ppm), “Quick onset slight bitterness perceived”. For the same compound, in assay [3], the “flavor properties when tasted in water” value was “did not have much cooling except on breath-in. After expectorating, cooling began to build over time”. Besides, the “residual cooling rating after expectorating” value in assay [3] (approx. five minutes after expectorating, scale of 1 to 9) came to 4. The “cooling rating when the cooler was in mouth” value in assay [3] (in mouth, scale of 1 to 9) is listed as 1.
Turning to `CC(C)(C)C1(C(=O)Nc2ccc(CC#N)cc2)CCCCC1` [Structure I, 1-tert-butyl-N-[4-(cyanomethyl)phenyl]cyclohexanecarboxamide], the “flavor properties when tasted in water” value in assay [3] was “bitter upfront, intense cooling upon expectorating”.
Same read-out and setting: the entry for `CC(C)(C)C1(C(=O)NCCc2ccccn2)CCCCC1` [Structure II, 1-tert-butyl-N-[2-(pyridine-2-yl)ethyl]cyclohexanecarboxamide] is “honey, cream soda, slightly bitter, cooling flavor properties after about thirty seconds”.
